In patent US20260262643A1, “HERBICIDAL BENZOXAZINES” (FMC CORPORATION, priority 2022, published 2026):

Columns and labels:
barnyardgrass [1] = experiment: Test A preemergence; type: in vivo, Echinochloa crusgalli; settings: visual injury after 10 days, 0 to 100 scale, 0 is no effect, 100 is complete control
How it was run: (§1)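 Plants were grown in loam and sand and treated preemergence or postemergence (one- to two-leaf stage, 2–10 cm) with compound in solvent plus surfactant. Response was scored against untreated controls after 10 greenhouse days, where 0 means no effect and 100 complete control.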

blackgrass [2] = experiment: Test A preemergence; type: in vivo, Alopecurus myosuroides; settings: 0 to 100 scale
How it was run: as §1

corn [3] = experiment: Test A preemergence; type: in vivo, Zea mays; settings: 0 to 100 scale
How it was run: as §1

foxtail, giant [4] = experiment: Test A preemergence; type: in vivo, Setaria faberi; settings: 0 to 100 scale
How it was run: as §1

kochia [5] = experiment: Test A preemergence; type: in vivo, Bassia scoparia; settings: 0 to 100 scale
How it was run: as §1

oat, wild [6] = experiment: Test A preemergence; type: in vivo, Avena fatua; settings: 0 to 100 scale
How it was run: as §1

pigweed, palmer [7] = experiment: Test A preemergence; type: in vivo, Amaranthus palmeri; settings: 0 to 100 scale
How it was run: as §1

ragweed [8] = experiment: Test A preemergence; type: in vivo, Ambrosia artemisiifolia; settings: 0 to 100 scale
How it was run: as §1

ryegrass, Italian [9] = experiment: Test A preemergence; type: in vivo, Lolium multiflorum; settings: 0 to 100 scale
How it was run: as §1

soybean [10] = experiment: Test A preemergence; type: in vivo, Glycine max; settings: 0 to 100 scale
How it was run: as §1

wheat [11] = experiment: Test A preemergence; type: in vivo, Triticum aestivum; settings: 0 to 100 scale
How it was run: as §1

barnyardgrass [12] = experiment: Test A postemergence; type: in vivo, Echinochloa crusgalli; settings: postemergence, 10 days; for Barnyardgrass plant response rating: 125 g ai/ha, 0 to 100 scale, 0 no effect, 100 complete control; for Plant response rating, Barnyardgrass: 500 g ai/ha, visual injury, 0 to 100 scale (0 no effect, 100 complete control)
How it was run: as §1

blackgrass [13] = experiment: Test A postemergence; type: in vivo, Alopecurus myosuroides; settings: postemergence, 10 days; for Blackgrass plant response rating: 125 g ai/ha, 0 to 100 scale, 0 no effect, 100 complete control; for Plant response rating, Blackgrass: 500 g ai/ha, visual injury, 0 to 100 scale (0 no effect, 100 complete control)
How it was run: as §1

corn [14] = experiment: Test A postemergence; type: in vivo, Zea mays; settings: postemergence, 10 days; for Corn plant response rating: 125 g ai/ha, 0 to 100 scale, 0 no effect, 100 complete control; for Plant response rating, Corn: 500 g ai/ha, visual injury, 0 to 100 scale (0 no effect, 100 complete control)
How it was run: as §1

foxtail, giant [15] = experiment: Test A postemergence; type: in vivo, Setaria faberi; settings: postemergence, 10 days
How it was run: as §1

kochia [16] = experiment: Test A postemergence; type: in vivo, Bassia scoparia; settings: postemergence, 10 days; for Kochia plant response rating: 125 g ai/ha, 0 to 100 scale, 0 no effect, 100 complete control; for Plant response rating, Kochia: 500 g ai/ha, visual injury, 0 to 100 scale (0 no effect, 100 complete control)
How it was run: as §1

oat, wild [17] = experiment: Test A postemergence; type: in vivo, Avena fatua; settings: postemergence, 10 days; for Oat, Wild plant response rating: 125 g ai/ha, 0 to 100 scale, 0 no effect, 100 complete control; for Plant response rating, Oat, Wild: 500 g ai/ha, visual injury, 0 to 100 scale (0 no effect, 100 complete control)
How it was run: as §1

pigweed, palmer [18] = experiment: Test A postemergence; type: in vivo, Amaranthus palmeri; settings: postemergence, 10 days; for Pigweed, Palmer plant response rating: 125 g ai/ha, 0 to 100 scale, 0 no effect, 100 complete control; for Plant response rating, Pigweed, Palmer: 500 g ai/ha, visual injury, 0 to 100 scale (0 no effect, 100 complete control)
How it was run: as §1

ragweed [19] = experiment: Test A postemergence; type: in vivo, Ambrosia artemisiifolia; settings: postemergence, 10 days; for Ragweed plant response rating: 125 g ai/ha, 0 to 100 scale, 0 no effect, 100 complete control; for Plant response rating, Ragweed: 500 g ai/ha, visual injury, 0 to 100 scale (0 no effect, 100 complete control)
How it was run: as §1

ryegrass, Italian [20] = experiment: Test A postemergence; type: in vivo, Lolium multiflorum; settings: postemergence, 10 days; for Ryegrass, Italian plant response rating: 125 g ai/ha, 0 to 100 scale, 0 no effect, 100 complete control; for Plant response rating, Ryegrass, Italian: 500 g ai/ha, visual injury, 0 to 100 scale (0 no effect, 100 complete control)
How it was run: as §1

soybean [21] = experiment: Test A postemergence; type: in vivo, Glycine max; settings: postemergence, 10 days; for Soybean plant response rating: 125 g ai/ha, 0 to 100 scale, 0 no effect, 100 complete control; for Plant response rating, Soybean: 500 g ai/ha, visual injury, 0 to 100 scale (0 no effect, 100 complete control)
How it was run: as §1

wheat [22] = experiment: Test A postemergence; type: in vivo, Triticum aestivum; settings: postemergence, 10 days; for Wheat plant response rating: 125 g ai/ha, 0 to 100 scale, 0 no effect, 100 complete control; for Plant response rating, Wheat: 500 g ai/ha, visual injury, 0 to 100 scale (0 no effect, 100 complete control)
How it was run: as §1

galium = experiment: Test A postemergence; type: in vivo, Galium aparine; settings: postemergence, 10 days; for Galium plant response rating: 125 g ai/ha, 0 to 100 scale, 0 no effect, 100 complete control; for Plant response rating, Galium: 500 g ai/ha, visual injury, 0 to 100 scale (0 no effect, 100 complete control)
How it was run: as §1

horseweed = experiment: Test A postemergence; type: in vivo, Erigeron canadensis; settings: postemergence, 10 days; for Horseweed plant response rating: 125 g ai/ha, 0 to 100 scale, 0 no effect, 100 complete control; for Plant response rating, Horseweed: 500 g ai/ha, visual injury, 0 to 100 scale (0 no effect, 100 complete control)
How it was run: as §1

barnyardgrass [23] = experiment: Test B flooded paddy test; type: in vivo, Echinochloa crus-galli; settings: 250 g ai/ha, Flood, 13 days, 0 to 100 scale (0 no effect, 100 complete control)
How it was run: (§2)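 Two-leaf plants, 3 cm flood, in-water application, 13-day greenhouse hold, visual 0–100 rating vs untreated checks.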

ducksalad = experiment: Test B flooded paddy test; type: in vivo, Heteranthera limosa; settings: 250 g ai/ha, Flood, 13 days, 0 to 100 scale (0 no effect, 100 complete control)
How it was run: as §2

rice = experiment: Test B flooded paddy test; type: in vivo, Oryza sativa; settings: 250 g ai/ha, Flood, 13 days, 0 to 100 scale (0 no effect, 100 complete control)
How it was run: as §2

sedge, umbrella = experiment: Test B flooded paddy test; type: in vivo, Cyperus difformis; settings: 250 g ai/ha, Flood, 13 days, 0 to 100 scale (0 no effect, 100 complete control)
How it was run: as §2

[24] = 125 g ai/ha, visual injury after 10 days, 0 is no effect, 100 is complete control
[25] = 500 g ai/ha, visual injury after 10 days, 0 is no effect, 100 is complete control

COCCc1ncn(-c2cccc(C(=O)N3C[C@H](C)Oc4c(C)cccc43)c2)n1 [Compound 113]
Plant response rating, Barnyardgrass (barnyardgrass [1]; 125 g ai/ha): 90 | Plant response rating, Barnyardgrass (barnyardgrass [1]; 500 g ai/ha): 100 | Plant response rating, Blackgrass (blackgrass [2]; [24]): 70 | Plant response rating, Blackgrass (blackgrass [2]; [25]): 90 | Plant response rating, Corn (corn [3]; [24]): 20 | Plant response rating, Corn (corn [3]; [25]): 90 | Plant response rating, Foxtail, Giant (foxtail, giant [4]; [24]): 100 | Plant response rating, Foxtail, Giant (foxtail, giant [4]; [25]): 100 | Plant response rating, Kochia (kochia [5]; [24]): 60 | Plant response rating, Kochia (kochia [5]; [25]): 100 | Plant response rating, Oat, Wild (oat, wild [6]; [24]): 80 | Plant response rating, Oat, Wild (oat, wild [6]; [25]): 90 | Plant response rating, Pigweed, Palmer (pigweed, palmer [7]; [24]): 90 | Plant response rating, Pigweed, Palmer (pigweed, palmer [7]; [25]): 100 | Plant response rating, Ragweed (ragweed [8]; [24]): 0 | Plant response rating, Ragweed (ragweed [8]; [25]): 70 | Plant response rating, Ryegrass, Italian (ryegrass, Italian [9]; [24]): 90 | Plant response rating, Ryegrass, Italian (ryegrass, Italian [9]; [25]): 100 | Plant response rating, Soybean (soybean [10]; [24]): 30 | Plant response rating, Soybean (soybean [10]; [25]): 80 | Plant response rating, Wheat (wheat [11]; [24]): 80 | Plant response rating, Wheat (wheat [11]; [25]): 90 | Barnyardgrass plant response rating (barnyardgrass [12]): 60 | Plant response rating, Barnyardgrass (barnyardgrass [12]): 90 | Blackgrass plant response rating (blackgrass [13]): 80 | Plant response rating, Blackgrass (blackgrass [13]): 90 | Corn plant response rating (corn [14]): 90 | Plant response rating, Corn (corn [14]): 90 | Foxtail, Giant plant response rating (foxtail, giant [15]; 125 g ai/ha, 0 to 100 scale, 0 no effect, 100 complete control): 60 | Plant response rating, Foxtail, Giant (foxtail, giant [15]; 500 g ai/ha, visual injury, 0 to 100 scale (0 no effect, 100 complete control)): 90 | Kochia plant response rating (kochia [16]): 40 | Plant response rating, Kochia (kochia [16]): 90 | Oat, Wild plant response rating (oat, wild [17]): 70 | Plant response rating, Oat, Wild (oat, wild [17]): 80 | Pigweed, Palmer plant response rating (pigweed, palmer [18]): 30 | Plant response rating, Pigweed, Palmer (pigweed, palmer [18]): 80 | Ragweed plant response rating (ragweed [19]): 50 | Plant response rating, Ragweed (ragweed [19]): 50 | Ryegrass, Italian plant response rating (ryegrass, Italian [20]): 50 | Plant response rating, Ryegrass, Italian (ryegrass, Italian [20]): 100 | Soybean plant response rating (soybean [21]): 100 | Plant response rating, Soybean (soybean [21]): 100 | Wheat plant response rating (wheat [22]): 50 | Plant response rating, Wheat (wheat [22]): 80 | Galium plant response rating (galium): 90 | Plant response rating, Galium (galium): 100 | Horseweed plant response rating (horseweed): 10 | Plant response rating, Horseweed (horseweed): 30 | Plant response rating, Barnyardgrass (barnyardgrass [23]): 45 | Plant response rating, Ducksalad (ducksalad): 65 | Plant response rating, Rice (rice): 0 | Plant response rating, Sedge, Umbrella (sedge, umbrella): 80

Cc1ccc(-n2cnc(CO)n2)cc1C(=O)N1C[C@H](C)Oc2c(Cl)cccc21 [Compound 148]
Plant response rating, Barnyardgrass (barnyardgrass [1]; 125 g ai/ha): 70 | Plant response rating, Barnyardgrass (barnyardgrass [1]; 500 g ai/ha): 100 | Plant response rating, Blackgrass (blackgrass [2]; 125 g ai/ha): 80 | Plant response rating, Blackgrass (blackgrass [2]; [25]): 90 | Plant response rating, Corn (corn [3]; 125 g ai/ha): 60 | Plant response rating, Corn (corn [3]; [25]): 60 | Plant response rating, Foxtail, Giant (foxtail, giant [4]; 125 g ai/ha): 100 | Plant response rating, Foxtail, Giant (foxtail, giant [4]; [25]): 100 | Plant response rating, Kochia (kochia [5]; 125 g ai/ha): 20 | Plant response rating, Kochia (kochia [5]; [25]): 70 | Plant response rating, Oat, Wild (oat, wild [6]; 125 g ai/ha): 20 | Plant response rating, Oat, Wild (oat, wild [6]; [25]): 80 | Plant response rating, Pigweed, Palmer (pigweed, palmer [7]; 125 g ai/ha): 100 | Plant response rating, Pigweed, Palmer (pigweed, palmer [7]; [25]): 100 | Plant response rating, Ragweed (ragweed [8]; 125 g ai/ha): 30 | Plant response rating, Ragweed (ragweed [8]; [25]): 90 | Plant response rating, Ryegrass, Italian (ryegrass, Italian [9]; 125 g ai/ha): 80 | Plant response rating, Ryegrass, Italian (ryegrass, Italian [9]; [25]): 100 | Plant response rating, Soybean (soybean [10]; 125 g ai/ha): 70 | Plant response rating, Soybean (soybean [10]; [25]): 100 | Plant response rating, Wheat (wheat [11]; 125 g ai/ha): 30 | Plant response rating, Wheat (wheat [11]; [25]): 90 | Barnyardgrass plant response rating (barnyardgrass [12]): 30 | Plant response rating, Barnyardgrass (barnyardgrass [12]): 80 | Blackgrass plant response rating (blackgrass [13]): 40 | Plant response rating, Blackgrass (blackgrass [13]): 90 | Corn plant response rating (corn [14]): 80 | Plant response rating, Corn (corn [14]): 90 | Kochia plant response rating (kochia [16]): 50 | Plant response rating, Kochia (kochia [16]): 80 | Oat, Wild plant response rating (oat, wild [17]): 20 | Plant response rating, Oat, Wild (oat, wild [17]): 70 | Pigweed, Palmer plant response rating (pigweed, palmer [18]): 90 | Plant response rating, Pigweed, Palmer (pigweed, palmer [18]): 100 | Ragweed plant response rating (ragweed [19]): 50 | Plant response rating, Ragweed (ragweed [19]): 70 | Ryegrass, Italian plant response rating (ryegrass, Italian [20]): 50 | Plant response rating, Ryegrass, Italian (ryegrass, Italian [20]): 80 | Soybean plant response rating (soybean [21]): 100 | Plant response rating, Soybean (soybean [21]): 100 | Wheat plant response rating (wheat [22]): 30 | Plant response rating, Wheat (wheat [22]): 70 | Galium plant response rating (galium): 90 | Plant response rating, Galium (galium): 100 | Horseweed plant response rating (horseweed): 50 | Plant response rating, Horseweed (horseweed): 50 | Plant response rating, Barnyardgrass (barnyardgrass [23]): 25 | Plant response rating, Ducksalad (ducksalad): 55 | Plant response rating, Rice (rice): 15 | Plant response rating, Sedge, Umbrella (sedge, umbrella): 65
